Data set [1] has as its system HBsAg in HBV-infected PHH. Description: Cryopreserved primary human hepatocytes (PHH) HBV infection assay, extracellular HBsAg (CLIA). It counts as cell-based. The note with it: Hepatitis B virus, Hepatocyte, 216 h, read-out: HBsAg IC50, Cryopreserved PHH infected with HBV, 9 days post-compound treatment, extracellular HBsAg. As to the method: This assay is used to confirm the anti-HBV effect of the compounds in HBV PHH infection assay. Cryopreserved PHH (BioreclamationIVT, Lot YJM) was thawed at 37° C. and gently transferred into pre-warmed InVitroGRO HT medium (BioreclamationIVT, Cat. S03317). The mixture was centrifuged at 70 relative centrifugal force (RCF) for 3 minutes at RT, and the supernatant was discarded. Pre-warmed InVitroGRO CP medium (BioreclamationIVT, Cat #S03316) was added to the cell pellet to gently re-suspend cells. The cells were seeded at the density of 5.8×10^4 cells per well to collagen I coated 96-well plate (Gibco, Cat. A1142803) with the InVitroGRO CP medium. All plates were incubated at 37° C. with 5% CO2 and 85% humidity.
At 20 hours after plating, the medium was changed to PHH culture medium (Dulbecco's Modified Eagle Medium (DMEM)/F12 (1:1) (Gibco, Cat. 11320-033), 10% fetal bovine semm (Gibco Cat. 10099141), 100 U/mL penicillin, 100 μg/mL streptomycin (Gibco, Cat. 151401-122), […] (Invitrogen Cat. PHG0311L), 20 ng/mL dexamethasone (Sigma, Cat. D4902) and 250 ng/mL human recombinant insulin (Gibco, Cat. 12585-014)). And the cells were incubated at 37° C. with 5% CO2 and 85% humidity for 4 hours. The medium was then changed to pre-warmed PHH culture medium containing 4% polyethylene glycol (PEG) MW8000 (Sigma, Cat. P1458-50 ML) and 1% DMSO (Sigma, Cat. D2650). 5.8×10^6 genomic equivalents of HBV were added into the medium.
At 24 hours post-infection, the cells were gently washed with PBS and refreshed with PHH culture medium supplemented with 1% DMSO, and 0.25 mg/mL Matrix gel (Corning, Cat. 356237) at 200 μL per well. All plates were immediately placed in at 37° C. CO2 incubator.
24 hours later, serial dilutions of compounds made with DMSO were further diluted with the same culture medium (PHH culture medium supplemented with 1% DMSO and 0.25 mg/mL Matrix gel as described above) before they were added to the cells to reach desired final compound concentrations and 1% DMSO concentration. The medium containing the compounds were refreshed every three days.
At 9 days post-compound treatment, extracellular HBsAg level were measured with Chemiluminescence Immuno Assay (CLIA) kit (Autobio, HBsAg Quantitative CLIA). Extracellular HBV DNA was extracted by MagNA Pure 96 system (Roche) and then determined by quantitative PCR with the following primers and probe: […]
HBsAg IC50 and HBV DNA IC50 values were derived from the dose-response curve using 4 parameter logistic curve fit method. The compounds of formula (I) have HBsAg IC50<20 μM, particularly <1 μM; and HBV DNA IC50<50 μM.

A short description of data set [2]: Human microsome stability assay. It counts as in vitro ADME. The settings on record: human liver microsomes, 1 μM test compound, 0.5 mg/mL microsomal protein, 37° C., pH 7.4, 0-30 minutes. In outline: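 Compound (1 μM) incubated at 37 °C with human liver microsomes (0.5 mg/mL protein) in 100 mM potassium phosphate, pH 7.4, after 10 min preincubation; started with NADPH regenerating system. Sampled at 0–30 min, quenched with cold ACN; remaining parent quantified by LC-MS/MS, with no-NADPH controls.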
In general terms: Liver microsomes are vesicles of endoplasmic reticulum, rich in cytochrome P450 enzymes.

In data set [3] the test system is HBeAg (surrogate marker for cccDNA) in HepDES19 cells. Description: Engineered HepDES19 primary screen assay (HBeAg ELISA). It counts as cell-based, HBV. The settings on record: Hepatitis B virus, HepDES19, 120 h, read-out: IC50 (HBeAg level, HepDES19 primary screen assay), HepDES19 cells, 5 days compound incubation, HBeAg ELISA. In outline:
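HepDES19 cells were induced by Tet withdrawal for 8 days, then treated with half-log compound dilutions (1% DMSO final) for 5 days at 37 °C. HBeAg was measured by ELISA as the cccDNA surrogate, viability by CCK-8, and IC50 from a 4-parameter logistic fit.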
(An ELISA detects its analyte on a solid surface through an enzyme-linked reagent.)

Usually IC50 stands for the concentration needed to halve the response being measured. `O=C(O)CCOc1cc(OC(F)(F)F)ccc1-c1cc(=O)c2cccc(Cl)c2o1` [Example A009, 3-[2-(8-chloro-4-oxo-chromen-2-yl)-5-(trifluoromethoxy)phenoxy]propanoic acid]: the IC50 in data set [1] stood at 1.48 µM; in data set [3] it was 403 nM. Also, the “Clearance of Human microsome” value in data set [2] is given as 6.57 mL/min/kg.
On the same counts, the results for `COc1cc(OCCC(=O)O)c(-c2cc(=O)c3cccc(Cl)c3o2)cc1OC` [Example A010, 3-[2-(8-chloro-4-oxo-chromen-2-yl)-4,5-dimethoxy-phenoxy]propanoic acid] are 3 µM, 1400 nM and 6.15 mL/min/kg.
Regarding `Cc1cc(-c2cc(=O)c3cccc(Cl)c3o2)c(OCCC(=O)O)cc1OC(F)(F)F` [Example A017, 3-[2-(8-chloro-4-oxo-chromen-2-yl)-4-methyl-5-(trifluoromethoxy)phenoxy]propanoic acid], the IC50 in data set [1] came to 1.84 µM; in data set [3], 3170 nM. For the same molecule, the “Clearance of Human microsome” value in data set [2] turned out to be 9.98 mL/min/kg.
For `O=C(O)CCOc1cc(OC(F)(F)F)ccc1-c1cc(=O)c2cccc(Br)c2o1` [Example A022, 3-[2-(8-bromo-4-oxo-chromen-2-yl)-5-(trifluoromethoxy)phenoxy]propanoic acid], the IC50 in data set [1] was 0.754 µM; in data set [3] it was 983 nM. Moreover, the “Clearance of Human microsome” value in data set [2] is listed as 6.15 mL/min/kg.
In the case of `Cc1ccc(-c2cc(=O)c3cccc(Br)c3o2)c(OCCC(=O)O)c1` [Example A024, 3-[2-(8-bromo-4-oxo-chromen-2-yl)-5-methyl-phenoxy]propanoic acid], the IC50 worked out at 4.09 µM in data set [1] and 570 nM in data set [3]. The “Clearance of Human microsome” value in data set [2] is 6.61 mL/min/kg.
In the same order, the values of `O=C(O)CCOc1cc(Br)cnc1-c1cc(=O)c2cccc(Cl)c2o1` [Example A026, 3-[[5-bromo-2-(8-chloro-4-oxo-chromen-2-yl)-3-pyridyl]oxy]propanoic acid] are 2.97 µM, 2970 nM and 6.15 mL/min/kg.
Consider `CC(CC(=O)O)Oc1cc(C(F)(F)F)ccc1-c1cc(=O)c2cccc(Cl)c2o1` (stereo not drawn) [Example A039, 3-[2-(8-chloro-4-oxo-chromen-2-yl)-5-(trifluoromethyl)phenoxy]butanoic acid], for which the half-maximal inhibitory concentration (IC50) is 7.08 µM in data set [1] and 142 nM in data set [3]. The “Clearance of Human microsome” value in data set [2] amounted to 6.37 mL/min/kg.
Regarding `CC(CC(=O)O)OC(=O)CC(C)Oc1cc(C(F)(F)F)ccc1-c1cc(=O)c2cccc(Cl)c2o1` (stereo not drawn) [Example A040, 3-[3-[2-(8-chloro-4-oxo-chromen-2-yl)-5-(trifluoromethyl)phenoxy]butanoyloxy]butanoic acid], the 50% inhibitory concentration (IC50) is 7.94 µM in data set [1] and 525 nM in data set [3]. The “Clearance of Human microsome” value in data set [2] is given as 6.15 mL/min/kg.
With `COc1cc(-c2cc(=O)c3cccc(Cl)c3o2)c(OCCC(=O)O)cc1C(F)(F)F` [Example A043, 3-[2-(8-chloro-4-oxo-chromen-2-yl)-4-methoxy-5-(trifluoromethyl)phenoxy]propanoic acid], the values for the IC50 in data set [1] and in data set [3] were 6.69 µM and 2250 nM, respectively. The “Clearance of Human microsome” value in data set [2] is 6.15 mL/min/kg.
In the same order, the values of `Cc1cc(-c2cc(=O)c3cccc(Cl)c3o2)c(OCCC(=O)O)cc1C(F)(F)F` [Example A044, 3-[2-(8-chloro-4-oxo-chromen-2-yl)-4-methyl-5-(trifluoromethyl)phenoxy]propanoic acid] are 1.77 µM, 2520 nM and 6.15 mL/min/kg.
In the same order, the values of `Cc1ccc(-c2cc(=O)c3cccc(Cl)c3o2)c(OCC(=O)O)c1` [Example A049, 2-[2-(8-chloro-4-oxo-chromen-2-yl)-5-methyl-phenoxy]acetic acid] are 1.26 µM, 87.2 nM and 6.15 mL/min/kg.
In the case of `O=C(O)CCCOc1cc(C(F)(F)F)ccc1-c1cc(=O)c2cccc(Cl)c2o1` [Example A052, 4-[2-(8-chloro-4-oxo-chromen-2-yl)-5-(trifluoromethyl)phenoxy]butanoic acid], the results for the 50% inhibitory concentration (IC50) in data set [1] and in data set [3] were 6.91 µM and 213 nM, respectively. Further, the “Clearance of Human microsome” value in data set [2] is on record as 8.01 mL/min/kg.
On the same counts, the results for `O=C(O)CCCOc1cc(OC(F)(F)F)ccc1-c1cc(=O)c2cccc(Cl)c2o1` [Example A053, 4-[2-(8-chloro-4-oxo-chromen-2-yl)-5-(trifluoromethoxy)phenoxy]butanoic acid] are 3.57 µM, 491 nM and 7.66 mL/min/kg.
Take `Cc1cc(-c2cc(=O)c3cccc(Cl)c3o2)c(OCCCC(=O)O)cc1Br` [Example A054, 4-[5-bromo-2-(8-chloro-4-oxo-chromen-2-yl)-4-methyl-phenoxy]butanoic acid]: the IC50 in data set [1] worked out at 4.21 µM; in data set [3], 1470 nM. Moreover, in data set [2], the “Clearance of Human microsome” value came to 6.15 mL/min/kg.
In the same order, the values of `COc1cc(OCCCC(=O)O)c(-c2cc(=O)c3cccc(Cl)c3o2)cc1OC` [Example A056, 4-[2-(8-chloro-4-oxo-chromen-2-yl)-4,5-dimethoxy-phenoxy]butanoic acid] are 9.21 µM, 3110 nM and 6.15 mL/min/kg.
On the same counts, the results for `Cc1cc(-c2cc(=O)c3cccc(Cl)c3o2)c(OCCCC(=O)O)cc1Cl` [Example A057, 4-[5-chloro-2-(8-chloro-4-oxo-chromen-2-yl)-4-methyl-phenoxy]butanoic acid] are 9.76 µM, 1330 nM and 6.15 mL/min/kg.
In the same order, the values of `O=C(O)[C@H]1CCN(C(=O)COc2cc(C(F)(F)F)ccc2-c2cc(=O)c3cccc(Cl)c3o2)C1` [Example A083, (3S)-1-[2-[2-(8-chloro-4-oxo-chromen-2-yl)-5-(trifluoromethyl)phenoxy]acetyl]pyrrolidine-3-carboxylic acid] are 9.74 µM, 5570 nM and 6.15 mL/min/kg.
As to `O=C(CCOc1cc(C(F)(F)F)ccc1-c1cc(=O)c2cccc(Cl)c2o1)NS(=O)(=O)C1CC1` [Example A084, 3-[2-(8-chloro-4-oxo-chromen-2-yl)-5-(trifluoromethyl)phenoxy]-N-cyclopropylsulfonyl-propanamide], the half-maximal inhibitory concentration (IC50) was 1.02 µM in data set [1] and 1450 nM in data set [3]. For the same molecule, the “Clearance of Human microsome” value in data set [2] is on record as 7.5 mL/min/kg.
Regarding `O=C(O)[C@H](COc1cc(C(F)(F)F)ccc1-c1cc(=O)c2cccc(Cl)c2o1)NS(=O)(=O)C1CC1` [Example A096, (2S)-3-[2-(8-chloro-4-oxo-chromen-2-yl)-5-(trifluoromethyl)phenoxy]-2-(cyclopropylsulfonylamino)propanoic acid], the results for the 50% inhibitory concentration (IC50) in data set [1] and in data set [3] were 1.24 µM and 114 nM, respectively. Also, the “Clearance of Human microsome” value in data set [2] is given as 6.15 mL/min/kg.
In the same order, the values of `Cc1ccc(S(=O)(=O)N[C@@H](COc2cc(C(F)(F)F)ccc2-c2cc(=O)c3cccc(Cl)c3o2)C(=O)O)cc1` [Example A097, (2S)-3-[2-(8-chloro-4-oxo-chromen-2-yl)-5-(trifluoromethyl)phenoxy]-2-(p-tolylsulfonylamino)propanoic acid] are 4.03 µM, 983 nM and 8.78 mL/min/kg.

(Values after patent US11708344B2, “Flavone derivatives for the treatment and prophylaxis of hepatitis B virus disease” (Hoffmann-La Roche Inc., priority 2018, dated 2023).)
